Data from US20060257489A1, “Fine particles, method and device for preparation thereof, and agent for parenteral injection and method for production thereof” (priority 2003, published 2006).

What was measured:
Assay type in all cases: physicochemical
[1] = absorbance characteristic before and after laser beam irradiation (photochemical reaction / degeneration)
Experimental: (§1) The absorbance characteristic of the solution was measured by using a general-purpose spectrophotometer (HITACHI U-3500). […] The optical path length was set to 10 mm for the measurement.

[2] = particle diameter estimated from the absorbance characteristic after fine pulverization; settings: for particle diameter after fine pulverization treatment: 355 nm, 310 mJ/cm^2Pulse
Description: The measured value (R) of the absorbance measured by the general-purpose spectrophotometer contains the light absorption (A1) of finely-pulverized carbamazepine itself, the light scattering (S) and the light absorption (A2) of the added surfactant. A1 represents the fine pulverization state of carbamazepine, and it is estimated that the average particle diameter of carbamazepine is smaller as the light absorption is larger. Therefore, in order to estimate the particle diameter of carbamazepine after the treatment, with respect to the absorbance on the ordinate axis in FIG. 8, the increment (S) of the absorbance by the light scattering at each wavelength is approximated to the measured value (S1) of 500 nm at which carbamazepine has no absorption, and the measured value R of the absorbance is corrected to the absorbance A1 by using the operation of A1≈R−A2-S1.
The absorbance characteristic after the laser beam irradiation was measured in the same manner as example 3. In FIG. 9, the solid line represents the absorbance characteristic of the treatment target liquid using the surfactant liquid having the concentration of 1/1000, the one-dot-dashed line represents the absorbance characteristic of the treatment target liquid using the surfactant liquid having the concentration of 1/100, and the two-dot-dashed line represents the absorbance characteristic of the treatment target liquid using the surfactant liquid having the concentration of 1/10. The dashed line represents the absorbance characteristic of the treatment target liquid using no surfactant.

[3] = observation of apparent dissolution in water after laser fine pulverization
Experimental: Subsequently, carbamazepine was suspended in water so that the concentration thereof was equal to 2 mg/ml, thereby preparing suspended liquid, and triple higher harmonics of YAG laser ([…], FWHM=4 ns, 20 Hz, irradiation time: 15 minutes) was irradiated to the suspended liquid.

[4] = variation of the absorbance characteristic of the finely-pulverized solution with time lapse after laser beam irradiation (dispersion stability); settings: finely-pulverized solution in water (355 nm, 380 mJ/cm^2Pulse, 15 minutes), after six days
Experimental: as §1
The absorbance characteristic indicated by the dashed line is the one before laser beam irradiation.

[5] = purity after fine pulverization treatment by HPLC, laser beam wavelength dependence; settings: one hour
Experimental: In this example, fine pulverization of clobetasone butyrate as adrenal cortex hormone of hardly-soluble medicament was attempted. […] A stirring magnet stick for stirring the liquid was put in the square cell so that a laser beam was uniformly irradiated to the suspended liquid. The temperature of the suspended liquid was set to room temperature of 25° C. at all times except for a temperature dependence test.
In this example, a continuously wavelength-variable OPO parametric oscillator was used as a light source for fine pulverization because the wavelength dependence of the fine pulverization and photochemical reaction by laser beam irradiation was required to be investigated. The pulse width of the irradiation laser beam was set to FWHM 4 ns, and the repetition frequency was set to 10 Hz.
Subsequently, the irradiation wavelength of the laser beam was varied and the test was carried out.

Row | SMILES | photochemical reaction on laser beam irradiation ([1]; 1 mg/ml suspended in water, 355 nm, 310 mJ/cm^2Pulse, 15 minutes, with and without surfactant Tween20) | photochemical reaction on laser beam irradiation ([1]; 2 mg/ml suspended in water, 355 nm, 430 mJ/cm^2Pulse, 15 minutes) | particle diameter after fine pulverization treatment ([2]; 15 minutes, 1 mg/ml in water) | dissolution when suspended in pure water ([3]; precipitate after laser treatment (355 nm, 430 mJ/cm^2Pulse, 15 minutes)) | dissolution when suspended in pure water ([3]; sample before the treatment) | degeneration after the treatment ([1]; 355 nm treatment, UV absorption curves just after the treatment and after six days) | photochemical reaction on laser beam irradiation ([1]; Kr-F laser 248 nm, otherwise as example 1) | degree of fine pulverization of the suspended liquid ([2]; 0.5 mg/ml in water, YAG pulse laser 1064 nm, 1700 mJ/cm^2 per pulse, one hour) | particle diameter after fine pulverization treatment ([2]; with added surfactant Tween20) | precipitation caused by the aggregation of fine particles [4] | appearance of the solution after the laser beam irradiation ([3]; water, 355 nm, 380 mJ/cm^2Pulse) | purity after fine pulverization treatment (HPLC) ([5]; laser beam wavelength 500 nm or less) | purity after fine pulverization treatment (HPLC) ([5]; laser beam wavelength 500 to 800 nm)
1 | NC(=O)N1c2ccccc2C=Cc2ccccc21 [carbamazepine] | no photochemical reaction is induced | little photochemical reaction occurred | sub-micron or less | instantaneously dissolved | hardly dissolved |  |  |  |  |  |  |  | 
2 | CCCC(=O)O[C@]1(C(=O)CCl)[C@H](C)C[C@@H]2[C@@H]3CCC4=CC(=O)C=C[C@]4(C)[C@]3(F)C(=O)C[C@@]21C [clobetasone butyrate] |  |  |  |  |  | no degeneration occurred | some photochemical reaction occurs | sub-micrometer order | sub-micron or less | rarely observed | transparent | degradation is also small | great degradation of the purity
